Consider 6 molecules from patent US20070185013A1, “Use of chk1 inhibitors to control cell proliferation” (ICOS CORPORATION, priority 2003, published 2007).

The test system of one assay is tumor cells. As to the kind of experiment: Cell-based proliferation (sensitization) assay (Example 2). To be noted: ratio of GI90 of the chemotherapy agent in absence to that in presence of Chk1 inhibitor. The method, then: Chk1 inhibitors were tested in a cell-based proliferation assay for the ability to sensitize tumor cells to ionizing radiation or chemotherapy agents. Chk1 inhibitors were tested in combination with 5-FU, gemicitabine, ionizing radiation, camptothecin, etoposide, hydroxyurea, cisplatin, fludarabine, Ara-C and aphidicolin. For each experiment, a serial dilution of each compound in combination with a ten-point dilution of each chemotherapy agent was included, in order to determine the concentration of chemotherapeutic required to inhibit the growth of 90% (GI90) of the cells in the presence and absence of the Chk1 inhibitor. This ratio of GI90 in the absence of Chk1 inhibitor to that in the presence of Chk1 inhibitor is called the “fold sensitization.” Fold sensitization was plotted as a function of Chk1 inhibitor concentration and the amount of drug required to yield two-fold sensitization was calculated. […] Another parameter analyzed was the fold sensitization achieved at the LD50 (the dose of compound alone that inhibits growth of 50% of cells) for the compound. These two values allow direct ranking of both the potency and toxicity of Chk1 inhibitors with respect to one another.

The test system of a further assay is Chk1. As to the kind of experiment: Chk1 serine 296 phosphorylation, Western blot in HT29 cells. To be noted: tumor cells treated with gemcitabine; Chk1 inhibitors for 15 minutes. It counts as cell-based, human. Here is the method:
Phosphorylation at this site is not inhibited by Wortinannin, which inhibits Atm and Atr. Therefore the phosphorylation of serine 296 is distinct from phosphorylation at serines 317 and 345 described in Example 12. […] Therefore, this approach may be used to monitor Chk1 activity in tumors in response to Chk1 activators. Further, this approach may be used to measure inhibition of Chk1 activation by Chk1 inhibitors.
Thus, HT 29 cells were treated with 20 μM gemcitabine for two hours. The gemcitabine was washed out of the cell growth media and cells were incubated for 22 additional hours. Protein lysates were prepared and separated by an SDS-polyacrylamide gel electrophoresis. Proteins were transferred to polyvinylidene fluoride (PVDF) membranes and probed with antisera (Cell Signalling) specific for phosphorlyated serine 296 (Cell Signalling). […] Further, HT29 cells treated with selective Chk1 inhibitors for 15 minutes show no serine 296 phosphorylation.

A further assay concerns HT29 cells. As to the kind of experiment: Cell cycle phase distribution by propidium iodide DNA content. Format: cell-based, human. To be noted: low-level camptothecin, 20 nM for 24 hours. An excerpt:
The proportion of cells in different phases of the cell cycle can be measured by those skilled in the art using any one of a variety of techniques. For example, a fluorescent DNA-binding dye, propidium iodide, can be used to distinguish cells in different cell cycle phases. Since cells in G2 have twice as much DNA as cells in G1, and S phase cells show an intermediate amount of DNA, the technique allows one to identify cells in different phases based on the DNA content of a cell. This method can be carried out on cell lines and tumor specimens (Cerra et al., Methods in Cell Biology, 33:1-12, 1990) Furthermore, cells in S phase can be labeled with the nucleotide analog, bromo-deoxyuridine (BrdU) and then fixed and stained with an fluorescent-tagged antibody to BrdU. Both of these methods employ fluorescence cytometry or fluorescence activity cell sorting (FACS) to quantify the proportion of cells staining with these fluorescent markers. […]
Two cell samples, each containing the same human carcinoma cell line (HT29) were prepared. Using propidium iodide (PI) to monitor DNA content, the percentage of cells the G1, S, and G2/M phases of the cell cycle were measured before and after contact with low levels of camptothecin. […]

Take `O=c1[nH]cc(F)c(=O)[nH]1` [5-FU, 5-fluorouracil]: the “Fold Sensitization to Agent by Chk1 Inhibitor” value in the assay on tumor cells was found to be 12 fold. Same read-out and setting: the result for `N.N.[Cl][Pt][Cl]` [Cisplatin, cisplatin] reads 3 fold; that for `COc1cc([C@@H]2c3cc4c(cc3[C@@H](O[C@@H]3O[C@@H]5CO[C@@H](C)O[C@H]5[C@H](O)[C@H]3O)[C@H]3COC(=O)[C@H]23)OCO4)cc(OC)c1O` [Etoposide, etoposide], 3 fold.

With `COC[C@H]1OC(=O)c2coc3c2[C@@]1(C)C1=C(C3=O)[C@@H]2CCC(=O)[C@@]2(C)C[C@H]1OC(C)=O` [Wortinannin], the “inhibition of Chk1 serine 296 phosphorylation” value with Chk1 is listed as “not inhibited”. As to `Nc1ccn([C@@H]2O[C@H](CO)[C@@H](O)[C@@H]2O)c(=O)n1` [Ara-C, cytosine arabinoside], the “Fold Sensitization to Agent by Chk1 Inhibitor” value with tumor cells was determined as 9 fold. Regarding `CC[C@@]1(O)C(=O)OCc2c1cc1n(c2=O)Cc2cc3ccccc3nc2-1` [camptothecin], the “Fold Sensitization to Agent by Chk1 Inhibitor” value in the assay on tumor cells worked out at 5 fold. Besides, in the assay on HT29 cells (PI staining), the “G1 (%)” value is on record as 6.75%. For the same molecule, in the assay on HT29 cells (combined total in G2 + M phase), the “G2/M* (%)” value is recorded as 7%.
